Values after ≈ are worked out from the molar mass of the structure shown.
Columns and labels:
Type in all cases: functional
Enterococcus faecalis = assay: Antibacterial activity against vancomycin-resistant Enterococcus faecalis ATCC 51299
Escherichia coli = assay: Antibacterial activity against Escherichia coli ATCC 25922
Staphylococcus aureus = assay: Antibacterial activity against methicillin-resistant Staphylococcus aureus ATCC 33591

Compound | MBC (Enterococcus faecalis) [µg/mL] | MIC (Enterococcus faecalis) [µg/mL] | MBC (Escherichia coli) [µg/mL] | MIC (Escherichia coli) [µg/mL] | MBC (Staphylococcus aureus) [µg/mL] | MIC (Staphylococcus aureus) [µg/mL]
CCCC[C@@H]1CN([C@@H](CC2CCCCC2)CN2CCCC2CN2C(N)=NC[C@@H]2Cc2ccccc2)C(=N)N1CC(C)c1ccc(CC(C)C)cc1 (some centres undefined) | < 2.5 | < 2.5 | > 10 | > 10 | 2.5 (≈ 3.59 µM) | < 2.5
CC(C)Cc1ccc(C(C)CN2C(=N)N([C@H](CC3CCCCC3)CN3CCCC3CN3C(N)=NC[C@@H]3Cc3ccccc3)C[C@@H]2CC2CCCCC2)cc1 (some centres undefined) | > 10 | < 2.5 | > 10 | > 10 | 2.5 (≈ 3.4 µM) | < 2.5
CC(C)Cc1ccc(C(C)CN2C(=N)N([C@H](CC3CCCCC3)CN3CCCC3CN3C(N)=NC[C@@H]3Cc3ccccc3)C[C@H]2CC2CCCCC2)cc1 (some centres undefined) | > 10 | 2.5 (≈ 3.4 µM) | 5 (≈ 6.79 µM) | 5 (≈ 6.79 µM) | < 2.5 | < 2.5
CCCC[C@@H]1CN([C@H](Cc2ccc3ccccc3c2)CN2CCCC2CN2C(N)=NC[C@@H]2C)C(=N)N1CCc1cc(C(F)(F)F)cc(C(F)(F)F)c1 (some centres undefined) | > 10 | < 2.5 | > 10 | > 10 | 2.5 (≈ 3.43 µM) | < 2.5
CCCC[C@@H]1CN([C@H](Cc2ccc3ccccc3c2)CN2CCCC2CN2C(N)=NC[C@@H]2Cc2ccccc2)C(=N)N1CCc1cc(C(F)(F)F)cc(C(F)(F)F)c1 (some centres undefined) | > 10 | < 2.5 | > 10 | > 10 | < 2.5 | < 2.5
CCCC[C@@H]1CN([C@H](CC2CCCCC2)CN2CCCC2CN2C(N)=NC[C@@H]2C)C(=N)N1CCc1cc(C(F)(F)F)cc(C(F)(F)F)c1 (some centres undefined) | > 10 | > 10 | > 10 | > 10 | < 2.5 | < 2.5
C[C@H]1CN=C(N)N1CC1CCCN1C[C@@H](Cc1ccc2ccccc2c1)N1C[C@@H](CC2CCCCC2)N(CCc2cc(C(F)(F)F)cc(C(F)(F)F)c2)C1=N (some centres undefined) | < 2.5 | < 2.5 | > 10 | > 10 | < 2.5 | < 2.5
CCCC[C@@H]1CN([C@H](CC2CCCCC2)CN2CCCC2CN2C(N)=NC[C@@H]2Cc2ccccc2)C(=N)N1CC(C)c1ccc(CC(C)C)cc1 (some centres undefined) | < 2.5 | < 2.5 | > 10 | > 10 | < 2.5 | < 2.5
CC(C)Cc1ccc(C(C)CN2C(=N)N([C@@H](CC3CCCCC3)CN3CCCC3CN3C(N)=NC[C@@H]3C)C[C@@H]2CC2CCCCC2)cc1 (some centres undefined) | > 10 | < 2.5 | 5 (≈ 7.58 µM) | 5 (≈ 7.58 µM) | 2.5 (≈ 3.79 µM) | < 2.5
C[C@H]1CN=C(N)N1CC1CCCN1C[C@H](CC1CCCCC1)N1C[C@@H](CC2CCCCC2)N(CCc2cc(C(F)(F)F)cc(C(F)(F)F)c2)C1=N (some centres undefined) | > 10 | < 2.5 | > 10 | > 10 | < 2.5 | < 2.5
N=C1N(CCc2cc(C(F)(F)F)cc(C(F)(F)F)c2)[C@H](CC2CCCCC2)CN1[C@H](CC1CCCCC1)CN1CCCC1CN1C(N)=NC[C@@H]1Cc1ccccc1 (some centres undefined) | 2.5 (≈ 3.12 µM) | 2.5 (≈ 3.12 µM) | > 10 | > 10 | < 2.5 | < 2.5
CCCC[C@@H]1CN([C@@H](CC2CCCCC2)CN2CCCC2CN2C(N)=NC[C@@H]2C)C(=N)N1CCc1cc(C(F)(F)F)cc(C(F)(F)F)c1 (some centres undefined) | > 10 | > 10 | > 10 | > 10 | 2.5 (≈ 3.65 µM) | 2.5 (≈ 3.65 µM)
CC(C)Cc1ccc(C(C)CN2C(=N)N([C@H](Cc3ccc4ccccc4c3)CN3CCCC3CN3C(N)=NC[C@@H]3C)C[C@@H]2CC2CCCCC2)cc1 (some centres undefined) | 2.5 (≈ 3.55 µM) | > 10 | > 10 | > 10 | 2.5 (≈ 3.55 µM) | 2.5 (≈ 3.55 µM)
CC(C)Cc1ccc(C(C)CN2C(=N)N([C@H](CC3CCCCC3)CN3CCCC3CN3C(N)=NC[C@@H]3C)C[C@@H]2CC2CCCCC2)cc1 (some centres undefined) | > 10 | < 2.5 | 5 (≈ 7.58 µM) | 5 (≈ 7.58 µM) | < 2.5 | < 2.5
CCCC[C@@H]1CN([C@H](Cc2ccc3ccccc3c2)CN2CCCC2CN2C(N)=NC[C@@H]2C)C(=N)N1CC(C)c1ccc(CC(C)C)cc1 (some centres undefined) | 2 (≈ 3.01 µM) | < 2.5 | 5 (≈ 7.53 µM) | 5 (≈ 7.53 µM) | 2.5 (≈ 3.77 µM) | 2.5 (≈ 3.77 µM)
CC(C)Cc1ccc(C(C)CN2C(=N)N([C@@H](CC3CCCCC3)CN3CCCC3CN3C(N)=NC[C@@H]3C)C[C@H]2CC2CCCCC2)cc1 (some centres undefined) | > 10 | < 2.5 | > 10 | > 10 | < 2.5 | < 2.5
C[C@H]1CN=C(N)N1CC1CCCN1C[C@@H](CC1CCCCC1)N1C[C@@H](CC2CCCCC2)N(CCc2cc(C(F)(F)F)cc(C(F)(F)F)c2)C1=N (some centres undefined) | > 10 | < 2.5 | 5 (≈ 6.89 µM) | 5 (≈ 6.89 µM) | 2.5 (≈ 3.44 µM) | < 2.5

Compound | MBC (Enterococcus faecalis) [µg/mL] | MIC (Enterococcus faecalis) [µg/mL] | MBC (Escherichia coli) [µg/mL] | MIC (Escherichia coli) [µg/mL] | MBC (Staphylococcus aureus) [µg/mL] | MIC (Staphylococcus aureus) [µg/mL]
C[C@H]1CN=C(N)N1CC1CCCN1C[C@@H](Cc1ccc2ccccc2c1)N1C[C@H](CC2CCCCC2)N(CCc2cc(C(F)(F)F)cc(C(F)(F)F)c2)C1=N (some centres undefined) | < 2.5 | < 2.5 | 5 (≈ 6.49 µM) | 5 (≈ 6.49 µM) | < 2.5 | < 2.5
CC(C)Cc1ccc(C(C)CN2C(=N)N([C@@H](CC3CCCCC3)CN3CCCC3CN3C(N)=NC[C@@H]3Cc3ccccc3)C[C@H]2CC2CCCCC2)cc1 (some centres undefined) | < 2.5 | < 2.5 | > 10 | > 10 | < 2.5 | < 2.5
N=C1N(CCc2cc(C(F)(F)F)cc(C(F)(F)F)c2)[C@@H](CC2CCCCC2)CN1[C@H](CC1CCCCC1)CN1CCCC1CN1C(N)=NC[C@@H]1Cc1ccccc1 (some centres undefined) | > 10 | 2.5 (≈ 3.12 µM) | > 10 | > 10 | < 2.5 | < 2.5
CC(C)Cc1ccc(C(C)CN2C(=N)N([C@H](Cc3ccc4ccccc4c3)CN3CCCC3CN3C(N)=NC[C@@H]3C)C[C@H]2CC2CCCCC2)cc1 (some centres undefined) | < 2.5 | < 2.5 | > 10 | > 10 | < 2.5 | < 2.5
CC(C)Cc1ccc(C(C)CN2C(=N)N([C@H](Cc3ccc4ccccc4c3)CN3CCCC3CN3C(N)=NC[C@@H]3Cc3ccccc3)C[C@@H]2CC2CCCCC2)cc1 (some centres undefined) | > 10 | < 2.5 | > 10 | > 10 | < 2.5 | < 2.5
N=C1N(CCc2cc(C(F)(F)F)cc(C(F)(F)F)c2)[C@@H](CC2CCCCC2)CN1[C@@H](CC1CCCCC1)CN1CCCC1CN1C(N)=NC[C@@H]1Cc1ccccc1 (some centres undefined) | > 10 | < 2.5 | > 10 | > 10 | < 2.5 | < 2.5
CCCC[C@@H]1CN([C@H](CC2CCCCC2)CN2CCCC2CN2C(N)=NC[C@@H]2C)C(=N)N1CC(C)c1ccc(CC(C)C)cc1 (some centres undefined) | > 10 | < 2.5 | > 10 | > 10 | 2.5 (≈ 4.03 µM) | < 2.5
N=C1N(CCc2cc(C(F)(F)F)cc(C(F)(F)F)c2)[C@H](CC2CCCCC2)CN1[C@@H](CC1CCCCC1)CN1CCCC1CN1C(N)=NC[C@@H]1Cc1ccccc1 (some centres undefined) | < 2.5 | < 2.5 | 5 (≈ 6.23 µM) | 5 (≈ 6.23 µM) | < 2.5 | < 2.5
CCCC[C@@H]1CN([C@H](Cc2ccc3ccccc3c2)CN2CCCC2CN2C(N)=NC[C@@H]2Cc2ccccc2)C(=N)N1CC(C)c1ccc(CC(C)C)cc1 (some centres undefined) | > 10 | < 2.5 | > 10 | > 10 | 2.5 (≈ 3.38 µM) | < 2.5
C[C@H]1CN=C(N)N1CC1CCCN1C[C@H](CC1CCCCC1)N1C[C@H](CC2CCCCC2)N(CCc2cc(C(F)(F)F)cc(C(F)(F)F)c2)C1=N (some centres undefined) | > 10 | < 2.5 | > 10 | > 10 | < 2.5 | < 2.5
CC(C)Cc1ccc(C(C)CN2C(=N)N([C@H](CC3CCCCC3)CN3CCCC3CN3C(N)=NC[C@@H]3C)C[C@H]2CC2CCCCC2)cc1 (some centres undefined) | < 2.5 | < 2.5 | 5 (≈ 7.58 µM) | 5 (≈ 7.58 µM) | 2.5 (≈ 3.79 µM) | < 2.5
CCCC[C@@H]1CN([C@H](CC2CCCCC2)CN2CCCC2CN2C(N)=NC[C@@H]2Cc2ccccc2)C(=N)N1CCc1cc(C(F)(F)F)cc(C(F)(F)F)c1 (some centres undefined) | < 2.5 | < 2.5 | 5 (≈ 6.56 µM) | 5 (≈ 6.56 µM) | 2.5 (≈ 3.28 µM) | < 2.5
N=C1N(CCc2cc(C(F)(F)F)cc(C(F)(F)F)c2)[C@@H](CC2CCCCC2)CN1[C@H](Cc1ccc2ccccc2c1)CN1CCCC1CN1C(N)=NC[C@@H]1Cc1ccccc1 (some centres undefined) | < 2.5 | < 2.5 | > 10 | > 10 | < 2.5 | < 2.5
CC(C)Cc1ccc(C(C)CN2C(=N)N([C@H](Cc3ccc4ccccc4c3)CN3CCCC3CN3C(N)=NC[C@@H]3Cc3ccccc3)C[C@H]2CC2CCCCC2)cc1 (some centres undefined) | > 10 | < 2.5 | > 10 | > 10 | 2.5 (≈ 3.2 µM) | < 2.5
CC(C)Cc1ccc(C(C)CN2C(=N)N([C@@H](CC3CCCCC3)CN3CCCC3CN3C(N)=NC[C@@H]3Cc3ccccc3)C[C@@H]2CC2CCCCC2)cc1 (some centres undefined) | < 2.5 | < 2.5 | > 10 | > 10 | < 2.5 | < 2.5
C[C@H]1CN=C(N)N1CC1CCCN1C[C@@H](CC1CCCCC1)N1C[C@H](CC2CCCCC2)N(CCc2cc(C(F)(F)F)cc(C(F)(F)F)c2)C1=N (some centres undefined) | 2.5 (≈ 3.44 µM) | < 2.5 | 5 (≈ 6.89 µM) | 5 (≈ 6.89 µM) | 2.5 (≈ 3.44 µM) | < 2.5
CCCC[C@@H]1CN([C@@H](CC2CCCCC2)CN2CCCC2CN2C(N)=NC[C@@H]2Cc2ccccc2)C(=N)N1CCc1cc(C(F)(F)F)cc(C(F)(F)F)c1 (some centres undefined) | < 2.5 | < 2.5 | > 10 | > 10 | < 2.5 | < 2.5

Reference: ChEMBL document CHEMBL1146892, “Pyrrolidine bis-cyclic guanidines with antimicrobial activity against drug-resistant Gram-positive pathogens identified from a mixture-based combinatorial library” (2006)
